Columns and labels:
[1] = target: T1, GST-CBP (1081-1197) bromodomain (Homo sapiens, UniProt Q92793); experiment: CBP AlphaScreen assay; format: binding; conditions: biotin-H4 (1-21) Ac-K5/8/12/16 peptide
T1 construct: The GST tagged bromodomains of CBP (1081-1197) and BRD4 (49-170) were obtained from BPS Bioscience; purchased BPS Bioscience
Experimental: (§1) Specific binding of the CBP or BRD4 bromodomain to the acetylated peptide derived from the H4 histone substrate (tetra acetylated H4 (1-21) Ac-K5/8/12/16) was measured in absence or presence of inhibitors. The GST tagged bromodomains of CBP (1081-1197) and BRD4 (49-170) were obtained from BPS Bioscience and binding to the biotinylated H4 (1-21) Ac-K5/8/12/16 (AnaSpec. 64989) was assessed via AlphaScreen technology (Perkin Elmer).
5 nM GST-CBP (1081-1197) and 20 nM biotin-H4 (1-21) Ac-K5/8/12/16 (AnaSpec. 64989) were incubated with varying concentrations of CBP inhibitors in 15 μL of buffer containing 50 mM HEPES 7.5, […], 1 mM TCEP, and 0.003% Tween-20. After 30 minutes incubation at room temperature, 15 μL of detection buffer (BPS Bio. 33006) containing 7 μg/mL of Glutathione AlphaLisa acceptor beads (Perkin Elmer AL109) and 14 μg/mL of Streptavidin donor beads (Perkin Elmer 676002) was then added to the previous mixture. The reaction was incubated for an additional 2 hours at room temperature, and the AlphaScreen signal was quantified using the Envision Multilabel plate reader. As negative control, GST-CBP (1081-1197) was incubated with the non-acetylated biotin-H4 (1-21) peptide (AnaSpec. 62555) and in presence of 0.25% of final DMSO concentration.
(§2) The binding of 2.5 nM of BRD4 (49-170) to 10 nM biotin-H4 (1-21) Ac-K5/8/12/16 (AnaSpec. 64989) was assessed following the same procedure described for the CBP assay. The standard dose response curves were fitted by Genedata Screener software using the variable-slope model: Signal=Signalnegative control+(SignalDMSO control−Signalnegative control)/(1+(IC50/Dose)^Hill slope).
(§3) Only Signal and Dose in the equation were treated as known values.

[2] = target: T2, BRD4 (49-170) bromodomain (Homo sapiens, UniProt O60885); experiment: BRD4 AlphaScreen assay; format: binding; conditions: biotin-H4 (1-21) Ac-K5/8/12/16 peptide
T2 construct: The GST tagged bromodomains of CBP (1081-1197) and BRD4 (49-170) were obtained from BPS Bioscience; purchased BPS Bioscience
Experimental: as §1, §2, §3

[3] = test system: DOHH2 cells; experiment: DOHH2 proliferation assay (CellTiter-Glo, day 7); format: cell-based; conditions: Homo sapiens, DOHH-2, 168 h; viability by CellTiter-Glo on day 7
Experimental: On day 1, 1000 DOHH2 cells were seeded to a 384-well TC plate (PerkinElmer #6007680) in 40 μL RPMI 1640 media, followed by the addition of CBP inhibitors except for column 13 where 3.3 μM staurosporine was added as negative control. DMSO was 0.1% in all the wells. The cells were lysed in and counted for viability by 40 μL CellTiter-Glo (Promega #G9243) on day 7. The luminescent signal was quantified by Envision Multilabel plate reader and the standard dose response curves were fitted by Genedata Screener software using the variable-slope model: Signal=Signalnegative control+(SignalDMSO control−Signalnegative control)/(1+(IC50/Dose)^Hill slope).
as §3

[4] = Metabolic stability in mouse liver microsomes; format: in vitro ADME; conditions: pH 7.4; CD-1 mouse liver microsomes 0.5 mg/mL, NADPH, 45 minutes, 37° C.; read-out: Half-life in liver microsomes (t1/2), Mouse
Experimental: (§4) Microsomal stability. Microsomal stability assays were conducted on a Beckmann Biomek FXp laboratory automation system. The liver microsomal incubation mixture consisted of liver microsomes (0.5 mg microsomal protein/mL), the Compound (1 μM), MgCl2 (3 mM), and EDTA (1 mM) in potassium phosphate buffer (100 mM, pH 7.4). Midazolam and Ketanserin were used as the assay control substrates. The reaction was initiated with the addition of an NADPH regeneration solution (1.3 mM NADPH) and maintained at 37° C. with shaking. At five time points ranging from 0 to 45 min, aliquots (50 μL) were removed and quenched with acetonitrile (100 μL) containing an internal standard (imipramine). After vortex and centrifugation, samples were analyzed by LC-MS/MS. Calculation of the in vitro half-lives and clearance followed literature guidelines.

[5] = Metabolic stability in rat liver microsomes; format: in vitro ADME; conditions: pH 7.4; Sprague Dawley rat liver microsomes 0.5 mg/mL, NADPH, 45 minutes, 37° C.; read-out: Half-life in liver microsomes (t1/2), Rat
Experimental: as §4

[6] = Metabolic stability in human liver microsomes; format: in vitro ADME; conditions: pH 7.4; human liver microsomes 0.5 mg/mL, NADPH, 45 minutes, 37° C.; read-out: Half-life in liver microsomes (t1/2), Human
Experimental: as §4

[7] = Metabolic stability in monkey liver microsomes; format: in vitro ADME; conditions: pH 7.4, read-out: Liver microsomal clearance (t1/2), Monkey
Experimental: as §4

[8] = Metabolic stability in dog liver microsomes; format: in vitro ADME; conditions: pH 7.4, read-out: Liver microsomal clearance (t1/2), Dog
Experimental: as §4

[9] = In vivo pharmacokinetics after a single dose, mouse; conditions: female CD-1 mice, single dose 0.2 or 0.3 mg/kg IV; for Vd: read-out: Vss
Experimental: (§5) IV (intravenous) doses were formulated in 20% DMSO+60% PEG400+20% water. PO (per os) doses were formulated in 0.5% methylcellulose in water.
Mouse: Female mice (CD1 strain, purchased from Shanghai JH Laboratory Animal Co. LTD) weighing 20-30 g were used for studies. Food and water were available to all animals ad libitum. The test article was dosed via tail vein (IV doses) or oral gavage (PO doses), respectively. Blood samples were collected from all animals at predose and at 0.083, 0.25, 0.5, 1, 2, 4, 8, and 24 h postdose into tubes containing the anticoagulant K2EDTA (3 animals per time point with 3 time points collected per animal). Plasma was separated from the blood by centrifugation at 4° C. and stored at −70° C. until analysis. Test article concentrations in plasma were quantified using a liquid chromatography with tandem mass spectrometry (LC-MS/MS) method.

[10] = In vivo pharmacokinetics after a single dose, rat; conditions: male, plasma, Sprague-Dawley rat
Experimental: as §5
Rat: Male rats (SD strain, purchased from Shanghai JH Laboratory Animal Co. LTD) weighing 200-300 g were used for studies. Animals were fasted overnight and fed 4 h postdose. Water was available ad libitum for all animals. Test article was dosed via dorsal foot vein (IV doses) or oral gavage (PO doses). Blood samples were collected via tail vein from all animals at predose and at 0.083, 0.25, 0.5, 1, 2, 4, 8, and 24 h postdose into tubes containing the anticoagulant K2EDTA. Plasma was separated from the blood by centrifugation at 4° C. and stored at −70° C. until analysis. Test article concentrations in plasma were quantified using a liquid chromatography with tandem mass spectrometry (LC-MS/MS) method.

[11] = In vivo pharmacokinetics after a single dose, monkey; conditions: male, plasma, Cynomolgus monkey
Experimental: as §5
(§6) Monkey: Male Cynomolgus monkeys (purchased from Hainan Jingang Biotech. Co., Ltd) weighing 3-5 kg were used for studies. Animals were fasted overnight and fed 4 h postdose. Test article was administered to monkeys via the cephalic vein (IV doses) or nasal gavage (PO doses). Blood samples were collected via the saphenous vein or cephalic vein from all animals at predose and 0.083, 0.25, 0.5, 1, 2, 4, 8, and 24 h postdose into tubes containing the anticoagulant K2EDTA. Plasma was separated from the blood by centrifugation at 4° C. and stored at −70° C. until analysis. Test article concentrations in plasma were quantified using a liquid chromatography with tandem mass spectrometry (LC-MS/MS) method.

[12] = In vivo pharmacokinetics after a single dose, dog; conditions: male, plasma, Beagle dog
Experimental: as §5
as §6, with “Dog:” for “Monkey:”, “Beagle dogs” for “Cynomolgus monkeys”, “Beijing Marshall Biotechnology” for “Hainan Jingang Biotech.”, “7-10” for “3-5”, “dogs” for “monkeys”, “oral” for “nasal”

[13] = mouse, plasma, read-out: Clearance (converted)

T1 sequence (Q92793 1081-1197): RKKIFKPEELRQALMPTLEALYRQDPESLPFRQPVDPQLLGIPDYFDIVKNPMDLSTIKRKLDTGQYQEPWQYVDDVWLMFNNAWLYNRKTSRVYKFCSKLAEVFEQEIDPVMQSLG

CNC(=O)N1CCn2c(C3CCOCC3)nc(-c3cccc4nc(-c5cnc(C)s5)c(C(F)F)cc34)c2C1 [Compound 1, 1-(3-(difluoromethyl)-2-(2-methylthiazol-5-yl)quinolin-5-yl)-N-methyl-3-(tetrahydro-2H-pyran-4-yl)-5,6-dihydroimidazo[1,5-a]pyrazine-7(8H)-carboxamide]
IC50 [1]: 3 nM | IC50 [2]: 4790 nM | IC50 [3]: 29 nM | half-life at 1 μM [4]: 69.8 h | half-life at 1 μM [5]: 3.22 h | half-life at 1 μM [6]: 3.97 h | half-life at 1 μM [7]: 0.383 h | half-life at 1 μM [8]: 1.05 h | clearance [9]: dramatic decrease | t1/2 [9]: increase | half-life ([9]; mouse, plasma): 4.47 h | clearance [9, 13]: 3.28 mL/min/kg | Vd ([9]; mouse, plasma): 0.342 L/kg | clearance ([10]; 1 mg/kg IV): 8.92 mL/min/kg | half-life ([10]; 1 mg/kg IV): 2.99 h | Vd ([10]; 1 mg/kg IV, read-out: Vss): 0.908 L/kg | AUC(0-t) ([10]; 3 mg/kg PO): 2.63 µM·h | Cmax ([10]; 3 mg/kg PO): 1350 nM | bioavailability ([10]; 3 mg/kg PO): 25.2% | clearance ([11]; 1 mg/kg IV): 12.3 mL/min/kg | half-life ([11]; 1 mg/kg IV): 1.65 h | Vd ([11]; 1 mg/kg IV, read-out: Vss): 1.06 L/kg | AUC(0-t) ([11]; 3 mg/kg PO): 2.49 µM·h | Cmax ([11]; 3 mg/kg PO): 773 nM | bioavailability ([11]; 3 mg/kg PO): 28.2% | clearance ([12]; 1 mg/kg IV): 6.72 mL/min/kg | half-life ([12]; 1 mg/kg IV): 3.42 h | Vd ([12]; 1 mg/kg IV, read-out: Vss): 1.57 L/kg | AUC(0-t) ([12]; 3 mg/kg PO): 10.8 µM·h | Cmax ([12]; 3 mg/kg PO): 1870 nM | bioavailability ([12]; 3 mg/kg PO): 78.9%

CC(=O)N1CCn2c(C3CCOCC3)nc(-c3cccc4nc(-c5cnc(C)s5)c(C(F)F)cc34)c2C1 [Compound 2]
IC50 [1]: 2 nM | IC50 [2]: 1930 nM | IC50 [3]: 215 nM

CC(=O)N1CCn2c(C3CCOCC3)nc(-c3cccc4nc(-c5ccc(C)nc5)c(C(F)F)cc34)c2C1 [Compound 3, 1-(1-(3-(Difluoromethyl)-2-(6-methylpyridin-3-yl)quinolin-5-yl)-3-(tetrahydro-2H-pyran-4-yl)-5,6-dihydroimidazo[1,5-a]pyrazin-7(8H)-yl)ethan-1-one]
IC50 [1]: 17 nM | IC50 [2]: 7430 nM | IC50 [3]: 198 nM

CNC(=O)N1CCn2c(C3CCOCC3)nc(-c3cccc4cc(-c5cnc(C)s5)ncc34)c2C1 [Compound 4, reference compound]
IC50 [3]: 134 nM | half-life at 1 μM [4]: 86.7 h | half-life at 1 μM [5]: 8.45 h | half-life at 1 μM [6]: 4.35 h | half-life ([9]; mouse, plasma): 0.318 h | clearance [9, 13]: 33.5 mL/min/kg | Vd ([9]; mouse, plasma): 0.822 L/kg
